For one series, the system named is C2C12 myotubes. Nature of the series: Glucose concentration in C2C12 myotube culture medium. To be noted: for glucose consumption in normoglycemia: glucose adjusted to 100 mg/100 mL, 10 mM (FIGS. 68A-B). The format is cell-based, Mice. How it is done: FIG. 67. Hypoglycemic activity ex vivo. Glucose concentration in myocyte culture medium, treated with the control, SLN1, or SLN10. […]. The final glucose concentration in the culture medium was determined with a Glucocard (Arkray). […].
Glucose concentration in culture media was determined with a Glucocard (Arkray). […].
For this purpose, the evolution of glucose uptake was studied in the culture medium of myotubes in response to different molecules studied (FIG. 67).

Series [1] concerns rat model of streptozotocin-induced diabetes. The series is described as follows: Blood glucose levels in rat model of streptozotocin-induced diabetes, 14 days oral. To be noted: mean ± SD; for Blood glucose levels before TI/RI administration, Day −3 (before STZ administration): rats, baseline before STZ and before first TI/RI administration.
For series [2] the following is noted: STZ-diabetic male rats, mean ± SD; for Absolute body weight, Day −1 / Absolute body weight, Day −2 (distribution of groups): before first TI/RI administration.
In the next series the test system is RAW264.7 macrophages. Nature of the series: GPBP secretion by RAW264.7 macrophages stimulated with LPS and IFN-γ (ELISA). The series is classed as cell-based. How it is done:
FIG. 91. […]. FIG. 94. […]. In A, an assay scheme is shown; […]. […] In B, the relative expression of IL-10 in RAW264.7 macrophages cultured with conditioned media, obtained as specified in A, is shown. The analysis was carried out by quantitative RT and PCR, using HPRT-1 as a normalizer. In this case, the reference point were cells treated with a conditioned medium in absence of N26 (RQ=1 value), and the increased IL-10 expression was verified; the analysis included non-stimulated cells cultured in a fresh, non-conditioned medium (cells).
[…]; then, they were stimulated with LPS (0.5 μg/mL) and IFN-γ (20 ng/mL) for 16 hours, after which the GPBP concentration in culture media was determined by ELISA.
FIG. 104. […]. RAW264.7 cells (control cells) were treated as indicated (10 mM) for 2 hours and subsequently stimulated with LPS (0.5 μg/mL) and IFN-γ (20 ng/mL) for 16 hours; […].
FIG. 105. […]. then, the GPBP concentration in culture media was determined by ELISA.

Series [3] has as its target T1, GPBP, LKB1/STRADα/MO25, AMPK, AS160 (Homo sapiens, UniProt Q9Y5P4).
T1 sequence (Q9Y5P4 1-624): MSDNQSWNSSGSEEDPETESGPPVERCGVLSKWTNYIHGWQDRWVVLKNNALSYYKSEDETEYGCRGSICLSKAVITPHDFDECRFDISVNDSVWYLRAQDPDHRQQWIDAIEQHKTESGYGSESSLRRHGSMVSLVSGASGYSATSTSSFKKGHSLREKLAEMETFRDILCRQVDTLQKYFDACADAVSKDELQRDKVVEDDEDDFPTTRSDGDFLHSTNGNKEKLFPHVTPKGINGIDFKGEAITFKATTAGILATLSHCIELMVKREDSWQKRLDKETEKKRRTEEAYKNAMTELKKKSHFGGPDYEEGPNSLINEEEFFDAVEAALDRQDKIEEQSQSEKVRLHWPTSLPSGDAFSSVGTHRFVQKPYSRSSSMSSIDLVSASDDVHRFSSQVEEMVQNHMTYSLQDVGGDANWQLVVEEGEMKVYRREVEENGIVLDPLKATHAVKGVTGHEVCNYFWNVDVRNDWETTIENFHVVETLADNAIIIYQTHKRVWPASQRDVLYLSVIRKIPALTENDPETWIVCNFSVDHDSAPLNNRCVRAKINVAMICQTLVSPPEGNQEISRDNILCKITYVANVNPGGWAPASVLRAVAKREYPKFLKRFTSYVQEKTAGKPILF
The series is described as follows: In vitro phosphorylation of GPBP with LKB1 complex, AMPK and AS160.
Excerpt: Reactions were stopped with a reducing loading buffer, analyzed by SDS-PAGE, and electrotransferred to PVDF membrane. Membranes were exposed to autoradiography during the indicated exposition times (exp.). Arrows show the identity of the bands observed in autoradiographs.
Arrows and lines to the right of the image show the identity of phosphorylated polypeptides. Upper images and those in the middle come from autoradiographs taken at several exposure times.
To understand this phenomenon at the molecular level, we conducted in vitro phosphorylation experiments with GPBP and the commercial protein complex LKB1/STRADα/MO25 (Millipore) (FIG. 72). STRADα and MO25 are supporters necessary to activate LKB1. […] It cannot be excluded, however, that the simple interaction of kinases activates corresponding autophosphorylation processes.
To further explain the above results, a more physiological approach in the in vitro assays was performed. A combination of LKB1/STRADα, GPBP, and AMPK/AS160 was used, i.e., each kinase was added with its own substrate except GPBP, which acted as both an enzyme and substrate at the same time (autophosphorylation) (FIG. 73).

The subject of a further series is LKB1 and GPBP. Nature of the series: LKB1 and GPBP distribution in C2C12 myotubes (confocal microscopy). The series is classed as cell-based, Mice. To be noted: 10 mM, 3 hours (FIG. 71). How it is done:
FIG. 71. […] C2C12 cells were differentiated to myotubes for 5 days by incubation in DMEM medium, supplemented with 2% horse serum; […]. Cells were washed with PBS (3×5 minutes) and incubated with antibodies against mouse IgG, conjugated with Alexa Fluor 488, and against goat IgG, conjugated with Alexa Fluor 546 (Molecular Probes) for 1 hour at RM in the dark. In this and in the following Figures showing confocal microscopy of cell cultures, all antibodies used were diluted in blocking solution. After incubation with antibodies, cells were washed with PBS (3×5 minutes) and mounting medium (Dako) in glass slides. Preparations were visualized with confocal microscopy and obtained images were analyzed with the WCIF ImageJ software as to detect colocalization points between GPBP and LKB1. GPBP appears in green, LKB1 in red, and colocalization points indicating similar and corresponding expression levels in both proteins appear in white.

A further series addresses T2, GPBP (Mus musculus, UniProt Q9EQG9).
T2 construct: endogenous in cells; host or cells: C2C12 myotubes
T2 sequence (Q9EQG9 1-624): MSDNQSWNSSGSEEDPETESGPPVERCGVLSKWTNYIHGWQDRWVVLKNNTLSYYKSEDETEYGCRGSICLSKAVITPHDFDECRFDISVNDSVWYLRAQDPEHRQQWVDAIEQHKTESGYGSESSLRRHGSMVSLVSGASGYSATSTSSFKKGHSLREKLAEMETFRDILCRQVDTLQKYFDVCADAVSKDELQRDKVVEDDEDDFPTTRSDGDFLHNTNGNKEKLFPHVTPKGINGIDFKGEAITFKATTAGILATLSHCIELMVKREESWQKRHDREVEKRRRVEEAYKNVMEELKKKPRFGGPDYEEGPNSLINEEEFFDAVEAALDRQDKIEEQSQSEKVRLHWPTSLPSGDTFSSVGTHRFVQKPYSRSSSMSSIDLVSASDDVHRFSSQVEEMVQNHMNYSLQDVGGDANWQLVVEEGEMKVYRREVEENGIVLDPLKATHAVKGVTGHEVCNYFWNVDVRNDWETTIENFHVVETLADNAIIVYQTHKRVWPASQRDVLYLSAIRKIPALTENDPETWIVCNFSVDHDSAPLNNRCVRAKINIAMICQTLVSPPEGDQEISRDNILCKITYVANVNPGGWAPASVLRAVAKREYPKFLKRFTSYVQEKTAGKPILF
Nature of the series: GPBP phosphorylation state in C2C12 myotubes (Western blot). The settings on record: 3 hours (FIG. 65). The format is cell-based, Mice. How it is done:
FIG. 65. […]. Similar quantities of each extract were analyzed using Western blot (SDS-PAGE and electrotransfer), with the indicated antibodies and chemiluminescence (ECL Prime, GE Healthcare). The arrow marks a dephosphorylated band, with higher abundance in SLN10-treated cells than in non-treated or SLN1-treated cells.
(In general: A western blot detects proteins with antibodies after separation by electrophoresis.)

“Also recorded” adds a separate entry of the source. Where a name gives a salt, the structure may show the parent alone. Read-outs that look alike come from different tables or passages of the source.

In the case of `CN(C)C(=N)N=C(N)N` [Metformin hydrochloride, metformin hydrochloride, reference compound], the “glucose consumption in normoglycemia” value with C2C12 myotubes is listed as “equally induce glucose consumption”. In series [1], the “Blood glucose levels before TI/RI administration, Day −3 (before STZ administration)” value is on record as 120.00 ± 8.72 mg/dL. For the same compound, the “Absolute body weight, Day −3 (before STZ administration)” value in series [2] (baseline before STZ and before first TI/RI administration) is on record as 231.30 ± 11.83 g. For the same compound, in series [2], the “Absolute body weight, Day −1” value is on record as 210.43 ± 11.90 g and the “Absolute body weight, Day −2 (distribution of groups)” value is on record as 223.73 ± 10.88 g. The GPBP secretion entry in the series with RAW264.7 macrophages (10 mM, LPS 0.5 μg/mL and IFN-γ 20 ng/mL (FIG. 91)) was “did not induce significantly the secretion of GPBP”. In series [3], the “GPBP autophosphorylation in presence of LKB1 mix, AMPK and AS160” value was “activates GPBP phosphorylation; also recorded: stimulated GPBP autophosphorylation”. Moreover, the “distribution of LKB1-GPBP aggregates” value in the series with LKB1 and GPBP was “moved LKB1-GPBP aggregates from peripheral positions to areas around the nuclei”. Moreover, the “GPBP phosphorylation state in myotubes” value at GPBP was “barely altered the phosphorylation state”.
Take metformin lysinate: the “glucose consumption in normoglycemia” value in the series on C2C12 myotubes is “equally induce glucose consumption”. Also, the “anti-hyperglycaemic activity (glucose in myotube medium)” value in the series on C2C12 myotubes (initial glucose 450 mg/100 mL, 10 mM, last 18 hours (FIG. 67), listed as SLN10) is “greater effect than SLN1; also recorded: higher than that of compound SLN1”. In addition, in series [1] (STZ-diabetic rats, before first TI/RI administration, n.d. = all values beyond ULOD of glucometer (600 mg/dl), § n=1, ¢ n=2), the “Blood glucose levels before TI/RI administration, Day −1” value is 577.00^§ ± n.d.^§ mg/dL. The “Blood glucose levels before TI/RI administration, Day −3 (before STZ administration)” value in series [1] is given as 114.00 ± 6.93 mg/dL. Besides, in series [2], the “Absolute body weight, Day −1” value is listed as 212.73 ± 0.23 g and the “Absolute body weight, Day −2 (distribution of groups)” value is 217.67 ± 9.71 g. For the same compound, in the series with RAW264.7 macrophages, the GPBP secretion result is recorded as “induces cGPBP secretion; also recorded: induced GPBP secretion strongly”, the “biological activity (GPBP secretion) with equimolar MgCl2 or CaCl2” value is reported as “reduce the biological activity” and the “cGPBP levels in conditioned medium” value is “approximately 200 ng/mL”. The “GPBP autophosphorylation in presence of LKB1 mix, AMPK and AS160” value in series [3] (FIG. 73, listed as SLN10) is “inhibit it increasingly; also recorded: inhibited it progressively”. For the same compound, the “incorporation of phosphate by LKB1/STRADα” value in series [3] (GPBP present in the reaction mixture) was “inhibited the incorporation of phosphate by LKB1/STRADα efficiently”. Also, the “distribution of LKB1-GPBP aggregates” value in the series with LKB1 and GPBP (listed as SLN10) was “seems to induce decolocalization in GPBP and LKB1; also recorded: delocalization of LKB1 and virtual absence of kinase in granular aggregates”. In addition, the “GPBP phosphorylation state in myotubes” value on GPBP (listed as SLN10) is on record as “induce GPBP dephosphorylation; also recorded: induced a remarkable GPBP dephosphorylation”.
